Experimental data reported in patent publication US10882882B2, “Post fermented tea-derived kaempferol-based compound” (AMOREPACIFIC CORPORATION, priority 2016, dated 2021).

Biological target: T1, beta amyloid (Aβ1-42) (Homo sapiens, UniProt P05067)
T1 construct: beta amyloid (Aβ1-42, AnaSpec Inc, USA); purchased AnaSpec Inc, USA
Assay: Inhibition of beta amyloid aggregation, fluorescence analysis (ThioflavinT assay)
Assay type: biochemical
Conditions: for Increased RFU (% of Pos. Cont.): Pos. Cont. (beta amyloid only) = 100; for inhibition of beta amyloid aggregation as compared with the positive control group: positive control (only beta amyloid, no compound) taken as 100%
Description: The effect of kaempferol3-O-[2-O″-(E)-p-coumaroyl][beta-D-glucopyranosyl-(1→3)-O-alpha-L-rhamnopyranosyl-(1→6)-O-beta-D-glucopyranoside] on inhibition of beta amyloid aggregation was confirmed by the fluorescence analysis (ThioflavinT assay). Specifically, beta amyloid (Aβ1-42, AnaSpec Inc, USA) was obtained and used at a concentration of 0.1 mg/ml and stored at −80° C. before use. Morin (20 μM), phenol red (20 μM), and kaempferol3-O-[2-O″-(E)-p-coumaroyl][beta-D-glucopyranosyl-(1→3)-O-alpha-L-rhamnopyranosyl-(1→6)-O-beta-D-glucopyranoside] (1 mg/ml) were respectively diluted with DMSO so as to be adjusted to the concentrations. In order to specify the degree of inhibition of Aβ1-42 aggregation, each of the compounds prepared at the above concentrations was diluted with 50 μL of 0.01 M sodium phosphate buffer solution to have a concentration of 10 μM, then 40 μL of 0.1 mg/ml of Aβ1-42 was added thereto, and then 10 μl of 2 mM thioflavinT was added thereto, and fluorescence was measured using a fluorescence spectrometer (RF-5300PC, SHIMADZU CORPORATION, Japan) at 37° C. for 150 minutes at intervals of 5 minutes. In the above table, “RFU” denotes the relative fluorescence unit, and “Increased RFU” denotes the amount of aggregated beta amyloid, and “Increased RFU (% of Pos.Cont.)” denotes the percentage value of the amount of aggregated beta amyloid with respect to that of the positive control group. “Novel substance 33” denotes kaempferol3-O-[2-O″-(E)-p-coumaroyl][beta-D-glucopyranosyl-(1→3)-O-alpha-L-rhamnopyranosyl-(1→6)-O-beta-D-glucopyranoside].

[1] = compound 10 μM, Aβ1-42 0.1 mg/ml, 37° C., 150 minutes

T1 sequence (P05067 672-713 limits assumed): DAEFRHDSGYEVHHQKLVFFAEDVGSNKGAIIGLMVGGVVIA

Row | Structure (SMILES) | Increased RFU (% of Pos. Cont.) [1] | inhibition of beta amyloid aggregation as compared with the positive control group | Increased RFU (amount of aggregated beta amyloid) (compound 10 μM, Aβ1-42 0.1 mg/ml, thioflavinT, 37° C., 150 minutes)
1 | O=S1(=O)OC(c2ccc(O)cc2)(c2ccc(O)cc2)c2ccccc21 [Phenol Red] | 93.6% | 6.4% | 
2 | O=c1c(O)c(-c2ccc(O)cc2O)oc2cc(O)cc(O)c12 [Morin] | 78.6% | 21.4% | 11471 RFU
